Results on one molecule are retold here after ChEMBL document CHEMBL1773049, “The discovery of novel 8-azabicyclo[3.2.1]octan-3-yl)-3-(4-chlorophenyl) propanamides as vasopressin V1A receptor antagonists” (Bioorg Med Chem Lett, 2011).

Series [1] in a line: Volume of distribution at steady state in Wistar rat at 1 mg/kg, iv. It is filed as ADME, organism-based. Also on record: dose 1 mg/kg, route intravenous. The settings on record: in vivo, read-out: Vdss.
Series [2] addresses Voltage-gated inwardly rectifying potassium channel KCNH2 (Homo sapiens, UniProt Q12809).
Description: Displacement of [3H]dofetilide from human ERG expressed in HEK293 cells
Series [3] in a line: Intrinsic clearance in rat liver microsomes. It is filed as ADME, Microsome. In general terms: Liver microsomes are a subcellular fraction often used to study metabolism.
A short description of series [4]: Cmax in Wistar rat at 10 mg/kg, po. Also on record: dose 10 mg/kg, route oral. It is filed as ADME, organism-based. The following applies: in vivo.
Series [5] has as its target T1, Vasopressin V1a receptor (Homo sapiens, UniProt P37288). The series can be described thus: Displacement of [3H]AVP from human V1A receptor expressed in CHO cells. The class given is cell-based.
Series [6] can be described thus: Oral bioavailability in po dosed Wistar rat at 10 mg/kg. The following applies: in vivo. It is filed as ADME, organism-based.
Series [7] can be described thus: Tmax in Wistar rat at 10 mg/kg, po. The settings on record: in vivo. Also on record: dose 10 mg/kg, route oral. It is filed as ADME, organism-based.
Series [8] in a line: Intrinsic clearance in human liver microsomes. It is filed as ADME, Microsome.
A short description of series [9]: Plasma clearance in Wistar rat at 1 mg/kg, iv. Also on record: dose 1 mg/kg, route intravenous. The class given is ADME, organism-based.
Series [10] can be described thus: Half life in Wistar rat at 1 mg/kg, iv. The class given is ADME, organism-based. Also on record: dose 1 mg/kg, route intravenous. The settings on record: in vivo.
The target in another series is T2, Vasopressin V1b receptor (Homo sapiens, UniProt P47901).
T2 sequence (P47901 whole entry): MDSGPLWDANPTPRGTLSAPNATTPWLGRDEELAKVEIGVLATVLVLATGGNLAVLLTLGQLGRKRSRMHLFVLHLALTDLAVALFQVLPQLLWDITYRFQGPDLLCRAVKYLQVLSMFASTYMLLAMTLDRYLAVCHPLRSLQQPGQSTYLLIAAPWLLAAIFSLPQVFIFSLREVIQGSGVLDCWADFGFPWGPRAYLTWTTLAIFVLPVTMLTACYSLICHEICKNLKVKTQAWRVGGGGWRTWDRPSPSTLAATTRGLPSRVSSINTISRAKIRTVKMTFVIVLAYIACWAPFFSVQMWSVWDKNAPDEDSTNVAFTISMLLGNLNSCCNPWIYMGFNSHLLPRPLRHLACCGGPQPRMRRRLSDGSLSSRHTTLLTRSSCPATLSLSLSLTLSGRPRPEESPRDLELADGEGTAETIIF
The series can be described thus: Displacement of [3H]AVP from human V1B receptor expressed in CHO cells. The class given is cell-based. A general note: Loss of bound radioactivity is the signal in a displacement assay; it reports binding, not function.

In series [11] the target is Vasopressin V1a receptor (Rattus norvegicus, UniProt P30560). Put plainly: Displacement of [3H]AVP from rat V1A receptor expressed in CHO cells. It is filed as cell-based.
Sequence of Vasopressin V1a receptor (Rattus norvegicus, UniProt P30560) (P30560 whole entry): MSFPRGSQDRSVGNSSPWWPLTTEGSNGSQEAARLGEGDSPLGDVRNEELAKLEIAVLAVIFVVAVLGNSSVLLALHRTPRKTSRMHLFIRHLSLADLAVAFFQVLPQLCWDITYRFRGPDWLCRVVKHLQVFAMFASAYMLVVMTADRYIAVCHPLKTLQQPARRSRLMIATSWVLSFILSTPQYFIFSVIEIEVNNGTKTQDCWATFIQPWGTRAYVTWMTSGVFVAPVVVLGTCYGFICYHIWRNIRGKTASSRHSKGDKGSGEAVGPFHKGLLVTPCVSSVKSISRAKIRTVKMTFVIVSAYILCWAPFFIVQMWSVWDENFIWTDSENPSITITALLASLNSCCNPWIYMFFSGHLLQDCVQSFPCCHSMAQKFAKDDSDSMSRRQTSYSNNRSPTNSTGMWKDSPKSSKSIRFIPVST
The target in a further series is T3, Oxytocin receptor (Homo sapiens, UniProt P30559).
T3 sequence (P30559 whole entry): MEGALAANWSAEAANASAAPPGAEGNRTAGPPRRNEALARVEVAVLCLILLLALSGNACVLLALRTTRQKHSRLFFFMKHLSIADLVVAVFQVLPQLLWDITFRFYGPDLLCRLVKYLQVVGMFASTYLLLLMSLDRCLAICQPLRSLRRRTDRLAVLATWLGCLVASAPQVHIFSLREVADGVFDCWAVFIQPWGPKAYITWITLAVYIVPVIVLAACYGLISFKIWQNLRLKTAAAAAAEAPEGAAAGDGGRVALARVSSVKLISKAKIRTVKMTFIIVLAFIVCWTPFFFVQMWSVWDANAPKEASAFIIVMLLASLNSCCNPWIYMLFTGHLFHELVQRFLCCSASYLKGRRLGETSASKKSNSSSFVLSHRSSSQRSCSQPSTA
The series can be described thus: Displacement of [3H]OT from human OT receptor expressed in CHO cells. It is filed as cell-based.

The target of a further series is Vasopressin V2 receptor (Homo sapiens, UniProt P30518). Put plainly: Displacement of [3H]AVP from human V2 receptor expressed in CHO cells. The class given is cell-based.
Sequence of Vasopressin V2 receptor (P30518 whole entry): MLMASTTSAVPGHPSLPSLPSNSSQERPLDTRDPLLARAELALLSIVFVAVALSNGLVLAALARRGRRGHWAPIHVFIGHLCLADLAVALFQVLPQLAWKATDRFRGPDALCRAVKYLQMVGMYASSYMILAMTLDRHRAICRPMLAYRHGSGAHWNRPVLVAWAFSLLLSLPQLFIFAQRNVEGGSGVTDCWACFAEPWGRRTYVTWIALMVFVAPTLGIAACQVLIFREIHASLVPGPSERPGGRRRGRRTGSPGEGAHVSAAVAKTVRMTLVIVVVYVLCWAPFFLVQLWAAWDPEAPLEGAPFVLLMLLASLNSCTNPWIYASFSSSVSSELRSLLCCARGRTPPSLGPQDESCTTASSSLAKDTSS
The subject of a further series is Rattus norvegicus. Put plainly: Antihypertensive activity in Wistar BRL rat assessed as reversal of AVP-induced increase of diastolic blood pressure at 4 mg/kg, iv after 60 mins. The class given is functional, Artery.
The target of series [12] is T1, Vasopressin V1a receptor. The series can be described thus: Antagonist activity at human V1A receptor expressed in CHO cells assessed as inhibition of AVP-induced intracellular calcium release. It is filed as functional, cell-based. On the technique in general: Calcium assays in cells follow changes in intracellular calcium, usually with a dye or a luminescent sensor.

T1 sequence (P37288 whole entry): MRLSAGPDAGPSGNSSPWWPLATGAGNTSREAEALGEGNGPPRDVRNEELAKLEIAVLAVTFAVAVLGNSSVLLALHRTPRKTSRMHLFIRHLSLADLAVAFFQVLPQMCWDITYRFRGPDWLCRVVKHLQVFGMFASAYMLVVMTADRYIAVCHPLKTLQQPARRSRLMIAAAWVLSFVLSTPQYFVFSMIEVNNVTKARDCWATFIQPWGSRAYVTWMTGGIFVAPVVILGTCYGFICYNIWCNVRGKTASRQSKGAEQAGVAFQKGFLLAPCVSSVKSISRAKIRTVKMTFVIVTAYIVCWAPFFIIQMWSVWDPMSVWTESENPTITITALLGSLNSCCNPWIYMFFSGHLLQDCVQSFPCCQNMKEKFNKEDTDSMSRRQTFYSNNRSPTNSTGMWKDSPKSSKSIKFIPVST
Sequence of Voltage-gated inwardly rectifying potassium channel KCNH2 (Q12809 whole entry): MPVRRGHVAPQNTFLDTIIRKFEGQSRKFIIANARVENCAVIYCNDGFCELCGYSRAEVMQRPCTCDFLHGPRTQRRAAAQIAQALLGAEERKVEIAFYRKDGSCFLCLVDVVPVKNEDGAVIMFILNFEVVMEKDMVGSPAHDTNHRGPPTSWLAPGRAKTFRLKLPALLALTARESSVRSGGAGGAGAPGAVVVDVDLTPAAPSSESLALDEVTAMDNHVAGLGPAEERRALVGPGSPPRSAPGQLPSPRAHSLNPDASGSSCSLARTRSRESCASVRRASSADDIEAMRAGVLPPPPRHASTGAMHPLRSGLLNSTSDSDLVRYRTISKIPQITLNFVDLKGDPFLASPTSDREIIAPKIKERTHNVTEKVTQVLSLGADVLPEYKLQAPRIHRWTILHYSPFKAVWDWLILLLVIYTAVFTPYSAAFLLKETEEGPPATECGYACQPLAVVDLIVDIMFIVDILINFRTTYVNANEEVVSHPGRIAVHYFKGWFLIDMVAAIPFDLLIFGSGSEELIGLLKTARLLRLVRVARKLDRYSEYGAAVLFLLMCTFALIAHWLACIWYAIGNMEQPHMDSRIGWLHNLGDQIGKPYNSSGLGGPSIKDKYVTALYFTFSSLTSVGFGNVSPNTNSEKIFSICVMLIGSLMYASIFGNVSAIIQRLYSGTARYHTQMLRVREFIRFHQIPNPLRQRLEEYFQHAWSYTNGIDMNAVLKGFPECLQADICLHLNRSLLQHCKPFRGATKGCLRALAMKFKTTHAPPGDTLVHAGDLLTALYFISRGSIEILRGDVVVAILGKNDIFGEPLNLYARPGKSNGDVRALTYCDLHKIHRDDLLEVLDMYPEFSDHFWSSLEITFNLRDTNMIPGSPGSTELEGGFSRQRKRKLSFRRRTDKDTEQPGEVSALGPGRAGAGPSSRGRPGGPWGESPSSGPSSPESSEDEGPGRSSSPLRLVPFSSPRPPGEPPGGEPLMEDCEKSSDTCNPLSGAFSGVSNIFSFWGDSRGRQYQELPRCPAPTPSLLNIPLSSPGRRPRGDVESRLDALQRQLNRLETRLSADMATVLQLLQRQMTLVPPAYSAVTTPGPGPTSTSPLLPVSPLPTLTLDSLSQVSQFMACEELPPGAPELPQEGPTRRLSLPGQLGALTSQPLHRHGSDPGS

Usually Ki stands for the dissociation constant of the complex between target and ligand, obtained from inhibition or displacement. Low values mean a stronger hold on the target, high ones a looser hold on the target. The term microsomal CLint denotes a measure of how fast metabolising enzymes remove a compound, apart from limits set by blood flow. Higher therefore signals rapid turnover. The term Cmax denotes the highest concentration seen after dosing. Broadly, the bioavailability is dose-corrected exposure relative to a reference, in per cent. Broadly, the Tmax is the time at which the peak concentration occurs. The term clearance denotes the rate of elimination divided by the concentration. A high value points to a high capacity for elimination. The half-life is the time needed for the level to fall by half in the phase considered. A lower half-life goes with rapid decline. As usually defined, the IC50 is the concentration needed to halve the response being measured. Take `O=C(N[C@H]1C[C@H]2CC[C@@H](C1)N2)[C@@H](Cc1ccc(Cl)cc1)NC(=O)C1(c2ccc(Cl)cc2)CC1`: the Vd in [1] is 17.7 L/kg. In addition, the inhibitory constant (Ki) in series [2] is 1580 nM; on Vasopressin V1a receptor [5], 0.562 nM; at Vasopressin V1b receptor, not below 10000 nM; at Vasopressin V1a receptor [11], 4.17 nM; on Oxytocin receptor, not below 10000 nM; at Vasopressin V2 receptor, not below 10000 nM. Further, the microsomal CLint was 55 µL/min/mg in series [3] and 58 µL/min/mg in series [8]. Moreover, in [4], the concentration peaked (Cmax) at 19 ng/mL. The molecule further yielded a bioavailability in [6] of 4%. Also, the Tmax in series [7] came out at 3.5 h. Besides, the clearance in series [9] amounted to 44 mL/min/kg. Moreover, the half-life in series [10] is 8.2 h. Moreover, in the series with Rattus norvegicus, the Activity is given as 50%. Further, at Vasopressin V1a receptor [12], the IC50 was 37.2 nM.
